This test relates to 138582-337-R-J1-PDC complex spheroid viability. In words: Anticancer human tumor 138582-337-R-J1-PDC patient-derived Merkel cell tumor cell line growth inhibition. Conditions: for viability, T/C: stronger effect = lower value. In short, it runs like this: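 Multicellular complex spheroids of tumor cells with human endothelial cells (HUVEC) and mesenchymal stem cells; the LSD1 inhibitor iadademstat was combined with standard-of-care or investigational agents. Top concentration at or near clinical Cmax, half-log dilutions; final DMSO ≤0.25%.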

Setting [1] is: curve of first compound, second compound 0.1 µM.
Where [2] appears, read: curve of first compound, second compound 0.316 µM.
[3] abbreviates: curve of first compound, second compound 1 µM.
[4] abbreviates: curve of first compound, second compound 3.16 µM.
Where [5] appears, read: curve of first compound, second compound 10 µM.
Setting [6] is: second compound 0.1 µM, first compound 0.00316 µM.
Setting [7] is: second compound 0.1 µM, first compound 0.01 µM.
[8] abbreviates: second compound 0.1 µM, first compound 0.0316 µM.
[9] abbreviates: second compound 0.1 µM, first compound 0.1 µM.
Setting [10] is: second compound 0.1 µM, first compound 0.316 µM.
Where [11] appears, read: second compound 0.1 µM, first compound 1 µM.
Setting [12] is: second compound 0.316 µM, first compound 0.00316 µM.
[13] abbreviates: second compound 0.316 µM, first compound 0.01 µM.
[14] abbreviates: second compound 0.316 µM, first compound 0.0316 µM.
Where [15] appears, read: second compound 0.316 µM, first compound 0.1 µM.
Where [16] appears, read: second compound 0.316 µM, first compound 0.316 µM.
Where [17] appears, read: second compound 0.316 µM, first compound 1 µM.
[18] abbreviates: second compound 1 µM, first compound 0.00316 µM.
[19] abbreviates: second compound 1 µM, first compound 0.01 µM.
Where [20] appears, read: second compound 1 µM, first compound 0.0316 µM.
The mark [21] stands for this setting: second compound 1 µM, first compound 0.1 µM.
Where [22] appears, read: second compound 1 µM, first compound 0.316 µM.
[23] abbreviates: second compound 1 µM, first compound 1 µM.
Setting [24] is: second compound 3.16 µM, first compound 0.00316 µM.
Setting [25] is: second compound 3.16 µM, first compound 0.01 µM.
[26] abbreviates: second compound 3.16 µM, first compound 0.0316 µM.
Where [27] appears, read: second compound 3.16 µM, first compound 0.1 µM.
Where [28] appears, read: second compound 3.16 µM, first compound 0.316 µM.
Setting [29] is: second compound 3.16 µM, first compound 1 µM.
Where [30] appears, read: second compound 10 µM, first compound 0.00316 µM.
[31] abbreviates: second compound 10 µM, first compound 0.01 µM.
Setting [32] is: second compound 10 µM, first compound 0.0316 µM.
[33] abbreviates: second compound 10 µM, first compound 0.1 µM.
[34] abbreviates: second compound 10 µM, first compound 0.316 µM.
The mark [35] stands for this setting: second compound 10 µM, first compound 1 µM.

Values joined by “and” are separate entries in the source; they are usually repeats but may differ in a detail not shown here. Equal entries are not always repeated. A value given as a limit tells only on which side of the number the result lay.
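Also: spheroids exposed to agents for 7 days.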
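For viability, T/C in this document: 100% = DMSO vehicle control viability.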

As a reminder, the IC50 is the midpoint of a concentration-inhibition curve. What is called viability, T/C is the result in the treated group divided by that in the control group, in per cent. Regarding `CCc1c2c(nc3ccc(O)cc13)-c1cc3c(c(=O)n1C2)COC(=O)[C@]3(O)CC` + NC1CC1c1ccc(-c2cccc(O)c2)cc1, the IC50 is, setting by setting: under setting [1], 4.56 nM; under setting [2], 2.69 nM; under setting [3], 3.28 nM; under setting [4], 4.01 nM; under setting [5], 5.59 nM. The viability, T/C (second compound 0.1 µM, first compound 0.000949 µM) was 64.6%; the viability, T/C (second compound 0.1 µM, first compound 0.003 µM) is 65.2%; the viability, T/C (second compound 0.1 µM, first compound 0.00949 µM) was 23.9%; the viability, T/C (second compound 0.1 µM, first compound 0.03 µM) was 0.24%; the viability, T/C (second compound 0.1 µM, first compound 0.0949 µM) was 0.19%; the viability, T/C (second compound 0.1 µM, first compound 0.3 µM) is 0.2%. Moreover, the viability, T/C is, setting by setting: (second compound 0.316 µM, first compound 0.000949 µM) 73.8%; (second compound 0.316 µM, first compound 0.003 µM) 45.9%; (second compound 0.316 µM, first compound 0.00949 µM) 23.5%; (second compound 0.316 µM, first compound 0.03 µM) 0.59%; (second compound 0.316 µM, first compound 0.0949 µM) 0.13%; (second compound 0.316 µM, first compound 0.3 µM) 0.24%. Further, the viability, T/C by setting is: (second compound 1 µM, first compound 0.000949 µM) 57.1%; (second compound 1 µM, first compound 0.003 µM) 51.3%; (second compound 1 µM, first compound 0.00949 µM) 23.9%; (second compound 1 µM, first compound 0.03 µM) 0.3%; (second compound 1 µM, first compound 0.0949 µM) 0.16%; (second compound 1 µM, first compound 0.3 µM) 0.21%. Further, the viability, T/C (second compound 3.16 µM, first compound 0.000949 µM) was 78%; the viability, T/C (second compound 3.16 µM, first compound 0.003 µM) is 57.7%; the viability, T/C (second compound 3.16 µM, first compound 0.00949 µM) is 25.3%; the viability, T/C (second compound 3.16 µM, first compound 0.03 µM) was 0.56%; the viability, T/C (second compound 3.16 µM, first compound 0.0949 µM) was 0.14%; the viability, T/C (second compound 3.16 µM, first compound 0.3 µM) is 0.23%. Moreover, the viability, T/C reads like this: (second compound 10 µM, first compound 0.000949 µM) 82.4%; (second compound 10 µM, first compound 0.003 µM) 68%; (second compound 10 µM, first compound 0.00949 µM) 34.7%; (second compound 10 µM, first compound 0.03 µM) 0.44%; (second compound 10 µM, first compound 0.0949 µM) 0.21%; (second compound 10 µM, first compound 0.3 µM) 0.33%.
With `O=C(C=Cc1cccc(S(=O)(=O)Nc2ccccc2)c1)NO`, the viability, T/C is, setting by setting: (compound 0.00949 µM) 96.1% and 76.4%; (compound 0.03 µM) 91.5% and 67.6%; (compound 0.0949 µM) 90% and 49.2%; (compound 0.3 µM) 73.3% and 23.6%; (compound 0.949 µM) 36% and 0.96%. Moreover, the half-maximal inhibitory concentration (IC50) (curve of compound) is 616 nM and 84.4 nM.
For the molecule `Nc1ccccc1NC(=O)c1ccc(CNC(=O)OCc2cccnc2)cc1`, the viability, T/C is, setting by setting: (compound 0.00949 µM) 96.2% and 67%; (compound 0.03 µM) 93.9% and 66.7%; (compound 0.0949 µM) 86.3% and 61.3%; (compound 0.3 µM) 80.7% and 49.9%; (compound 0.949 µM) 61.3% and 13.2%; (compound 3 µM) 4.61% and 0.47%. Moreover, where the note is “curve of compound”, the IC50 is 1160 nM and 279 nM.
On to `Nc1ncn(C2CC(O)C(CO)O2)c(=O)n1` (stereo not drawn) + NC1CC1c1ccc(-c2cccc(O)c2)cc1, for which the IC50 under setting [1] was over 1000 nM; the IC50 under setting [2] was over 1000 nM; the IC50 under setting [3] is over 1000 nM; the IC50 under setting [4] was over 1000 nM; the IC50 under setting [5] was over 1000 nM. In addition, the viability, T/C by setting is: under setting [6], 74%; under setting [7], 92%; under setting [8], 94.5%; under setting [9], 85.7%; under setting [10], 77.8%; under setting [11], 75.3%. Moreover, the viability, T/C reads like this: under setting [12], 82.3%; under setting [13], 98.7%; under setting [14], 108%; under setting [15], 85.7%; under setting [16], 85.3%; under setting [17], 76.6%. The viability, T/C runs as follows: under setting [18], 75.8%; under setting [19], 109%; under setting [20], 98.1%; under setting [21], 88.5%; under setting [22], 83%; under setting [23], 84.9%. The viability, T/C under setting [24] is 67.7%; the viability, T/C under setting [25] was 119%; the viability, T/C under setting [26] is 113%; the viability, T/C under setting [27] is 89.6%; the viability, T/C under setting [28] is 87.8%; the viability, T/C under setting [29] is 80.1%. In addition, the viability, T/C is 85.8% under setting [30]; 99.2% under setting [31]; 118% under setting [32]; 106% under setting [33]; 113% under setting [34]; 88.4% under setting [35].
Regarding `O=C(C=Cn1cnc(-c2cc(C(F)(F)F)cc(C(F)(F)F)c2)n1)NNc1cnccn1` + NC1CCC(NC2CC2c2ccccc2)CC1, the IC50 turned out to be 8.4 nM under setting [1]; 9.48 nM under setting [2]; 7.39 nM under setting [3]; 6.26 nM under setting [4]; 5.57 nM under setting [5]. Moreover, the viability, T/C runs as follows: under setting [6], 73.5%; under setting [7], 45.8%; under setting [8], 21.6%; under setting [9], 18.4%; under setting [10], 22.6%; under setting [11], 17.4%. Also, the viability, T/C reads like this: under setting [12], 67%; under setting [13], 49.1%; under setting [14], 21.2%; under setting [15], 20.7%; under setting [16], 30.3%; under setting [17], 21.7%. In addition, the viability, T/C by setting is: under setting [18], 82.5%; under setting [19], 38.4%; under setting [20], 21.4%; under setting [21], 20.5%; under setting [22], 21.6%; under setting [23], 23.1%. In addition, the viability, T/C under setting [24] was 61%; the viability, T/C under setting [25] was 42.4%; the viability, T/C under setting [26] was 19%; the viability, T/C under setting [27] is 20.1%; the viability, T/C under setting [28] was 22.8%; the viability, T/C under setting [29] was 24.7%. Further, the viability, T/C under setting [30] was 75%; the viability, T/C under setting [31] was 24.6%; the viability, T/C under setting [32] was 11.9%; the viability, T/C under setting [33] is 18%; the viability, T/C under setting [34] is 24.5%; the viability, T/C under setting [35] was 31.8%.

(Values after PubChem BioAssay AID1918931 (Molecular Pharmacology Branch, DTP, NCI, 2023).)
